Test results published in article PMC3973950, “Synthesis of 5-arylidine amino-1,3,4-thiadiazol-2-[(N-substituted benzyol)]sulphonamides endowed with potent antioxidants and anticancer activity induces growth inhibition in HEK293, BT474 and NCI-H226 cells” (Medicinal Chemistry Research, 2013).

What was measured:
[1] = test system: BT474 (breast cancer cell line); experiment: In vitro cytotoxicity by MTT assay, BT474; format: cell-based; details: Homo sapiens, 72 h, read-out: % cytotoxicity (100 − % cell survival) of BT474 cell line; for cytotoxicity at 0.005 µM: BT-474, 0.005 μM; for cytotoxicity at 0.015 µM: BT-474, 0.015 μM; for cytotoxicity at 0.045 µM: BT-474, 0.045 μM; for cytotoxicity at 0.13 µM: BT-474, 0.13 μM; for cytotoxicity at 0.41 µM: BT-474, 0.41 μM; for cytotoxicity at 1.23 µM: BT-474, 1.23 μM; for cytotoxicity at 3.7 µM: BT-474, 3.7 μM; for cytotoxicity at 11.11 µM: BT-474, 11.11 μM; for cytotoxicity at 33.33 µM: BT-474, 33.33 μM; for cytotoxicity at 100 µM: BT-474, 100 μM
Protocol: (§1) The cancer cell line cultures of HEK 293 ([…]), BT474 (breast cancer cell line) and NCI-H226 (lung cancer) were obtained from Pasteur Institute of India, Coonoor, India, and were cultured in RPMI-1640 and 10 % heat-[…] New born calf serum with antibiotics [penicillin ([…]), streptomycin (100 μg/mL) and amphotericin B (25 μg/mL)]. The cells were maintained at 37 °C in a humidified atmosphere with 5 % CO2 and were subcultured twice a week.
(§2) The monolayer cell culture (100 μL) was trypsinized, and the cell count was adjusted to […] using medium containing 10 % new born calf serum. To each well of the 96-well microtitre plate, the diluted cell suspension (approximately 10,000 cells) (0.1 mL) was added and kept for 24 h in incubator at 37 °C in 5 % CO2 atmosphere for cell monolayer formation. After 24 h, when a partial monolayer was formed at the bottom of the well, the supernatant was flicked off, the monolayer was washed once, and different drugs, i.e. synthesized compounds (100 μL), were added to the cells in microtitre plates. The plates were then incubated at 37 °C for 3 days in 5 % CO2 atmosphere, and microscopic examination was carried out and observations recorded every 24 h. After 72 h, the sample solution in the wells was flicked off; MTT dye ([…]) was added to each well; plates were gently shaken and incubated for 4 h at 37 °C in 5 % CO2 incubator. The supernatant was removed and propanol (50 μL) was added; the plates were gently shaken to solubilize the formed formazan. The absorbance was measured using a microplate reader at a wavelength of 490 nm (Edmondson et al., [1988]; Prasad et al., [2005]; Chiruvella et al., [2008]; Chang et al., [2007]).

[2] = In vitro cytotoxicity by MTT assay, HEK 293; format: cell-based, human; details: human, HEK 293 cells, read-out: % cytotoxicity (100 − % cell survival) of HEK 293 cell line
Protocol: as §1, §2

[3] = In vitro cytotoxicity by MTT assay, NCI-H226; format: cell-based; details: human, NCI-H226 lung cancer cells, 0.015 μM, read-out: % Cytotoxicity (100 − % cell survival) of NCI-H226 cell line
Protocol: as §1, §2

[4] = test system: NCI-H226 (lung cancer cell line); experiment: In vitro cytotoxicity by MTT assay, NCI-H226; format: cell-based; details: Homo sapiens, 72 h, read-out: % Cytotoxicity (100 − % cell survival) of NCI-H226 cell line; for cytotoxicity at 0.005 µM: NCI-H226, 0.005 μM; for cytotoxicity at 0.045 µM: NCI-H226, 0.045 μM; for cytotoxicity at 0.13 µM: NCI-H226, 0.13 μM; for cytotoxicity at 0.41 µM: NCI-H226, 0.41 μM; for cytotoxicity at 1.23 µM: NCI-H226, 1.23 μM; for cytotoxicity at 3.7 µM: NCI-H226, 3.7 μM; for cytotoxicity at 11.11 µM: NCI-H226, 11.11 μM; for cytotoxicity at 33.33 µM: NCI-H226, 33.33 μM; for cytotoxicity at 100 µM: NCI-H226, 100 μM
Protocol: as §1, §2

[5] = test system: root meristem cells of Allium cepa; experiment: In vitro antimitotic activity and cytogenetic analysis, Allium cepa meristem root model; format: cell-based; details: compounds 1 mg/mL, PC (EMS) 2 × 10^−2 M
Protocol: Small bulbs (1.5–2.0 cm in diameter) of the common onion, A. cepa (2n = 16), were purchased from vendor at a local market. Prior to initiating the test, the outer scales of the bulbs and the dry bottom plate were removed without destroying the root primordia. The roots of A. cepa were grown in distilled water in Erlenmeyer flasks (200 mL capacity) under laboratory conditions (dark 24 °C). For each synthesized compound sample, after reaching a length of 3 cm (±0.5 cm), a series of six bulbs were placed in distilled water (pH 7.3) for 48 h and then onion roots were treated with the synthesized compound at 1 mg/mL concentrations of each tested compound. The test tubes were kept in an incubator at 22 ± 1 °C, and the test samples were changed daily at the same time. Several of the newly formed root tips were then cut from each bulb and examined for any visible morphological abnormalities. The bulbs with satisfactory root lengths (2–2.5 cm) were used in the study, while those with exceptionally long or short roots were discarded (on average 2–3 bulbs). Therefore, individual sets of five bulbs were used for each extract sample.
Distilled water (pH 7.3) was used as a negative control, and EMS (2 × 10^−2 M) used as a positive control mutagen (Fiskesjo, [1993], [1997]). After 24 h of exposure, several root tips were removed from the bulbs, fixed in 3:1 (v/v) ethanol (90 %)/glacial acetic acid (45 %) and stored overnight at 4 °C. The next day, they were placed in 70 % (v/v) aqueous alcohol and refrigerated until used. Allium roots were softened by digesting with HCl and rinsed the roots in water. After removing the water from the third rinse, the roots were covered with the orcein acetate stain. The roots were incubated in the stain for 12 min. During this time, the very tip of the root begins to turn red as the DNA stains the numerous small actively dividing cells at the tip. A root was transferred to the centre of a clean microscope slide, and a drop of water was added. Using a razor blade most of the unstained part of the root was cut off and discarded. The root tip was covered with a cover slip and then carefully pushed down on the cover slide with the wooden end of a dissecting probe. […] The root tip should spread out to a diameter about 0.5–1 cm. Five slides were prepared per bulb.
The following parameters were used for the determination of cytotoxicity and genotoxicity: • (i) the mitotic index (MI) was calculated as the ratio between the number of mitotic cells and the total number of cells scored and expressed as percentage using following formula as per standard procedures. Mitoticindex=Numberofdividingcells/Totalnumberofcells×100 • (ii) Chromatin aberrations (stickiness, breaks and polar deviation) were used as end points for the determination of cytogenetic effects, and micronuclei (MNC) were scored in interphase cells per 1,000 cells (‰ MNC) (Freshney, [2000]). • (iii) The most frequent abnormalities are shown in microphotographs. After 72 h of exposure to the test samples, the root lengths were measured and used as an index of general toxicity. The results for mitotic index and root length are expressed as percentage of the negative and positive controls. Visible morphological modifications, such as changes in root consistency and colour as well as the presence of swelling (c-tumours), hooks or twists in the roots, were also observed.

Row | Compound | cytotoxicity at 0.005 µM [1] [%] | cytotoxicity at 0.015 µM [1] [%] | cytotoxicity at 0.045 µM [1] [%] | cytotoxicity at 0.13 µM [1] [%] | cytotoxicity at 0.41 µM [1] [%] | cytotoxicity at 1.23 µM [1] [%] | cytotoxicity at 3.7 µM [1] [%] | cytotoxicity at 11.11 µM [1] [%] | cytotoxicity at 33.33 µM [1] [%] | cytotoxicity at 100 µM [1] [%] | cytotoxicity at 72 h, 0.005 µM [2] [%] | cytotoxicity at 72 h, 0.015 µM [2] [%] | cytotoxicity at 72 h, 0.045 µM [2] [%] | cytotoxicity at 72 h, 0.13 µM [2] [%] | cytotoxicity at 72 h, 0.41 µM [2] [%] | cytotoxicity at 72 h, 1.23 µM [2] [%] | cytotoxicity at 72 h, 3.7 µM [2] [%] | cytotoxicity at 72 h, 11.11 µM [2] [%] | cytotoxicity at 72 h, 33.33 µM [2] [%] | cytotoxicity at 72 h, 100 µM [2] [%] | also measured
1 | Nc1ccc(S(=O)(=O)Nc2nnc(S(=O)(=O)NC(=O)c3ccccc3)s2)cc1 [Compound 7a] | 34.1 | 35 | 36.7 | 37.8 | 38.2 | 39.5 | 40.7 | 41.8 | 43.7 | 46.3 | 23.7 | 25.8 | 26.4 | 28.6 | 30.2 | 32.5 | 32.5 | 33.5 | 34.1 | 35.7 | cytotoxicity at 72 h, 0.015 µM [3]: 28.4%; cytotoxicity at 0.005 µM [4]: 27.4%; cytotoxicity at 0.045 µM [4]: 29.2%; cytotoxicity at 0.13 µM [4]: 29.4%; cytotoxicity at 0.41 µM [4]: 30.4%; cytotoxicity at 1.23 µM [4]: 32.2%; cytotoxicity at 3.7 µM [4]: 34.5%; cytotoxicity at 11.11 µM [4]: 35.1%; cytotoxicity at 33.33 µM [4]: 36.2%; cytotoxicity at 100 µM [4]: 36.9%
2 | NS(=O)(=O)c1ccc(S(=O)(=O)Nc2cccc3c(Cl)c[nH]c23)cc1 [ISL, indisulam, reference compound] | 42.2 | 45 | 46.4 | 49 | 50.8 | 52.9 | 54.7 | 62.5 | 66.1 | 73.5 | 42.3 | 46.9 | 48.6 | 50.1 | 51.1 | 52.2 | 55.4 | 57.8 | 61.2 | 69.4 | cytotoxicity at 72 h, 0.015 µM [3]: 28.4%; cytotoxicity at 0.005 µM [4]: 26.4%; cytotoxicity at 0.045 µM [4]: 30.2%; cytotoxicity at 0.13 µM [4]: 31.1%; cytotoxicity at 0.41 µM [4]: 33%; cytotoxicity at 1.23 µM [4]: 34.1%; cytotoxicity at 3.7 µM [4]: 36.5%; cytotoxicity at 11.11 µM [4]: 38.6%; cytotoxicity at 33.33 µM [4]: 44.7%; cytotoxicity at 100 µM [4]: 59.3%
3 | Nc1ccc(C(=O)NS(=O)(=O)c2nnc(N)s2)cc1 [Compound 4c] | 30.6 | 32.1 | 34.2 | 35.5 | 36.3 | 37.6 | 38.8 | 39.4 | 40.3 | 41.4 | 36.3 | 37.9 | 38.2 | 39.1 | 39.9 | 40.7 | 42.1 | 46.5 | 47.8 | 49.1 | cytotoxicity at 72 h, 0.015 µM [3]: 38.2%; cytotoxicity at 0.005 µM [4]: 37.6%; cytotoxicity at 0.045 µM [4]: 38.9%; cytotoxicity at 0.13 µM [4]: 39.3%; cytotoxicity at 0.41 µM [4]: 42.2%; cytotoxicity at 1.23 µM [4]: 45.4%; cytotoxicity at 3.7 µM [4]: 47.2%; cytotoxicity at 11.11 µM [4]: 49.1%; cytotoxicity at 33.33 µM [4]: 51.2%; cytotoxicity at 100 µM [4]: 54.2%
4 | CCOS(C)(=O)=O [PC, Ethyl methanesulphonate, reference compound] |  |  |  |  |  |  |  |  |  |  |  |  |  |  |  |  |  |  |  |  | Aberrant cells (%) ± SEM [5]: 43.20 ± 7.10%; MNC (‰) ± SEM (micronuclei per 1,000 cells) [5]: 0.59 ± 0.09 ‰; Polar deviations (%) ± SEM [5]: 12.36 ± 3.36%; Stickiness (%) ± SEM [5]: 36.31 ± 9.84%; MI (%) ± SEM (mitotic index) ([5]; lower MI = higher activity, negative control 6.22): 1.86 ± 0.23%
